Assay results as given in PMC9143880, “Improving Antimicrobial Activity and Physico-Chemical Properties by Isosteric Replacement of 2-Aminothiazole with 2-Aminooxazole” (Pharmaceuticals, 2022).
Values after ≈ are worked out from the molar mass of the structure shown. Like-named read-outs stand apart in the source and are kept apart here.

Experiments:
[1] = RP-UHPLC lipophilicity parameter log k’w; type: physicochemical; details: for log k’w: RP-UHPLC, acetonitrile/water, log k extrapolated to 0% acetonitrile; for logkw: experimental lipophilicity parameter
In short: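 Retention was measured once per eluent composition: subtype I at 40/45/50% and subtype II at 20/30/40% acetonitrile in water, isocratic RP-UHPLC. log k values from these runs gave the lipophilicity index log k’w.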

HepG2 cells = assay: HepG2 cytotoxicity screening (CellTiter 96); type: cell-based, human; details: for IC50: Homo sapiens, HepG2, 24 h, 24 h incubation, CellTiter 96, * above highest tested concentration, ** limited by insolubility in medium
[2] = tested on: Mycobacterium tuberculosis H37Ra ITM-M006710 (ATCC 9431); assay: Antimycobacterial MIC, microdilution broth / Alamar Blue (resazurin); type: cell-based; details: for MIC: Mycobacterium tuberculosis
[3] = tested on: M. smegmatis DSM 43465 (ATCC 607); assay: Antimycobacterial MIC, microdilution broth / resazurin; type: cell-based; details: Mycolicibacterium smegmatis; resazurin after 48 h; read-out: MIC M. smegmatis
[4] = tested on: M. aurum DSM 43999 (ATCC 23366); assay: as above; type: cell-based; details: Mycolicibacterium aurum; resazurin after 72 h; read-out: MIC M. aurum
[5] = tested on: M. avium DSM 44156 (ATCC 25291); assay: as above; type: cell-based, Mycobacterium avium; details: Mycobacterium avium; resazurin after 96 h; read-out: MIC M. avium
[6] = tested on: M. kansasii DSM 44162 (ATCC 12478); assay: as above; type: cell-based; details: Mycobacterium kansasii, read-out: MIC M. kansasii
[7] = tested on: Staphylococcus aureus subsp. aureus CCM 4223 (ATCC 29213); assay: Antibacterial microdilution broth (EUCAST); type: cell-based; details: 24h incubation; for MIC: Staphylococcus aureus, read-out: MIC SA
[8] = tested on: Staphylococcus aureus subsp. aureus (MRSA) CCM 4750 (ATCC 43300); assay: Antibacterial microdilution broth (EUCAST); type: cell-based; details: 24h incubation; for MIC: Staphylococcus aureus, read-out: MIC MRSA
[9] = tested on: Staphylococcus epidermidis CCM 4418 (ATCC 12228); assay: Antibacterial microdilution broth (EUCAST); type: cell-based; details: 24h incubation; for MIC: Staphylococcus epidermidis, read-out: MIC SE
[10] = tested on: Enterococcus faecalis CCM 4224 (ATCC 29212); assay: Antibacterial microdilution broth (EUCAST); type: cell-based; details: 24h incubation; for MIC: Enterococcus faecalis, read-out: MIC EF
[11] = tested on: Escherichia coli CCM 3954 (ATCC 25922); assay: Antibacterial microdilution broth (EUCAST); type: cell-based; details: 24h incubation; for MIC: Escherichia coli, read-out: MIC EC
[12] = tested on: Acinetobacter baumannii DSM 30007 (ATCC 19606); assay: Antibacterial microdilution broth (EUCAST); type: cell-based; details: 24h incubation; for MIC: Acinetobacter baumannii, read-out: MIC AB
[13] = tested on: Pseudomonas aeruginosa CCM 3955 (ATCC 27853); assay: Antibacterial microdilution broth (EUCAST); type: cell-based; details: 72h incubation; for MIC: Pseudomonas aeruginosa, read-out: MIC PA
PC12 cells = tested on: PC12 cells; design: method as in PMID 19125579; details: acting as a PARP inhibitor; cited from earlier work
[14] = tested on: Candida albicans CCM 8320 (ATCC 24433); assay: Antifungal microdilution broth (EUCAST); details: for MIC: Candida albicans, 24 h, read-out: MIC CA; for MIC CA: 24h incubation
[15] = tested on: Candida krusei CCM 8271 (ATCC 6258); assay: Antifungal microdilution broth (EUCAST); details: for MIC: Pichia kudriavzevii, 24 h, read-out: MIC CK; for MIC CK: 24h incubation
[16] = tested on: Candida parapsilosis CCM 8260 (ATCC 22019); assay: Antifungal microdilution broth (EUCAST); details: for MIC: Lodderomyces parapsilosis, 24 h, read-out: MIC CP; for MIC CP: 24h incubation
[17] = tested on: Candida tropicalis CCM 8264 (ATCC 750); assay: Antifungal microdilution broth (EUCAST); details: for MIC: Candida tropicalis, 24 h, read-out: MIC CT; for MIC CT: 24h incubation
[18] = tested on: Aspergillus fumigatus ATCC 204305; assay: Antifungal microdilution broth (EUCAST); details: for MIC: Aspergillus fumigatus, ATCC204305, 24 h, read-out: MIC AF; for MIC AF: 24h incubation
[19] = tested on: Aspergillus flavus CCM 8363; assay: Antifungal microdilution broth (EUCAST); details: for MIC: Aspergillus flavus, CCM8363, 24 h, read-out: MIC AFla; for MIC AFla: 24h incubation
[20] = tested on: Lichtheimia corymbifera CCM 8077; assay: Antifungal microdilution broth (EUCAST); details: for MIC: Lichtheimia corymbifera, CCM8077, 24 h, read-out: MIC LC; for MIC LC: 24h incubation
[21] = tested on: Trichophyton interdigitale CCM 8377 (ATCC 9533); assay: Antifungal microdilution broth (EUCAST); details: for MIC: Trichophyton interdigitale, 72 h, read-out: MIC TI; for MIC TI: 72h incubation
[22] = tested on: Mycobacterium tuberculosis H37Ra ITM-M006710 (ATCC 9431); design: method as in PMID 30108959; details: cited from earlier work
G+ and G- bacteria = tested on: G+ and G- bacteria; design: method as in PMID 24561667; details: whole cell, cited from earlier work
Escherichia coli FabH = tested on: Escherichia coli FabH; design: method as in PMID 24561667; details: cited from earlier work
[23] = tested on: bacterial MetAP (S. aureus, E. coli) vs hMetAP; design: method as in PMID 15664828; details: tested against S. aureus; cited from earlier work
[24] = 120 h, Middlebrook 7H9, resazurin after 120 h, read-out: Mtb H37Ra MIC

## O=C(Nc1nc(-c2ccccc2)cs1)c1ccncc1 [Compound 13a]
[1]
  log k’w: 2.190
  logkw: 2.19
HepG2 cells
  IC50: > 100 µM
HepG2 cells; SI = IC50 (µM) HepG2 / MICH37Ra (µM)
  SI: >3.6
[2]; Middlebrook 7H9, resazurin after 120 h
  Mtb H37Ra MIC: 7.81 µg/mL
[2]; [24]
  MIC: 3.91 to 7.81 µg/mL
[2]; recalculated from µg/mL, read-out: MICH37Ra
  MIC: 27.8 µM
[3]
  MIC: ≥ 500 µg/mL
[4]
  MIC: ≥ 500 µg/mL
[5]
  MIC: ≥ 500 µg/mL
[6]; 96 h
  MIC: 7.81 µg/mL (≈ 27.8 µM)
[7]
  MIC: > 125 µM
[8]
  MIC: > 125 µM
[9]
  MIC: > 125 µM
[10]
  MIC: > 125 µM
[11]
  MIC: > 125 µM
[12]
  MIC: > 125 µM
[13]
  MIC: > 125 µM
PC12 cells
  cytoprotective effect: moderate cytoprotective effect
[14]
  MIC: > 125 µM
[15]
  MIC: > 125 µM
[16]
  MIC: > 125 µM
[17]
  MIC: > 125 µM
[18]
  MIC: > 125 µM
[19]
  MIC: > 125 µM
[20]
  MIC: > 125 µM
[21]
  MIC: > 125 µM

## O=C(Nc1nc(-c2ccccc2)cs1)c1cnccn1 [Compound 17a]
[1]
  log k’w: 2.365
  logkw: 2.365
[3]
  MIC: > 250 µg/mL
[6]; resazurin after 96 h
  MIC: > 50 µg/mL
[7]
  MIC SA: insoluble
[8]
  MIC MRSA: insoluble
[9]
  MIC SE: insoluble
[10]
  MIC EF: insoluble
[11]
  MIC EC: insoluble
[12]
  MIC AB: insoluble
[13]
  MIC PA: insoluble
[22]
  Mtb H37Ra MIC: >50 [11] µg/mL
[14]
  MIC CA: insoluble
[15]
  MIC CK: insoluble
[16]
  MIC CP: insoluble
[17]
  MIC CT: insoluble
[18]
  MIC AF: insoluble
[19]
  MIC AFla: insoluble
[20]
  MIC LC: insoluble
[21]
  MIC TI: insoluble

## O=C(Nc1nc(-c2ccccc2)cs1)c1cnc(Cl)cn1 [Compound 18a]
[1]
  log k’w: 3.173
  logkw: 3.173
[3]
  MIC: > 500 µg/mL
[5]
  MIC: > 100 µg/mL
[6]; resazurin after 96 h
  MIC: > 100 µg/mL
[7]
  MIC SA: insoluble
[8]
  MIC MRSA: insoluble
[9]
  MIC SE: insoluble
[10]
  MIC EF: insoluble
[11]
  MIC EC: insoluble
[12]
  MIC AB: insoluble
[13]
  MIC PA: insoluble
[22]
  Mtb H37Ra MIC: >100 [11] µg/mL
[14]
  MIC CA: insoluble
[15]
  MIC CK: insoluble
[16]
  MIC CP: insoluble
[17]
  MIC CT: insoluble
[18]
  MIC AF: insoluble
[19]
  MIC AFla: insoluble
[20]
  MIC LC: insoluble
[21]
  MIC TI: insoluble

## O=C(Nc1nc(-c2ccc(Br)cc2)cs1)c1cccc(Cl)c1 [C]
G+ and G- bacteria; recalculated to µM
  MIC: 7.9 to 31.8 µM
G+ and G- bacteria
  MIC: 3.13 to 12.5 µg/mL
Escherichia coli FabH
  IC50: 9.3 µM

## O=C(Nc1nccs1)c1ccccn1 [Compound 1a]
[1]
  log k’w: 1.857
  logkw: 1.857
HepG2 cells
  IC50: > 1000 µM
[2]; [24]
  MIC: 31.2 µg/mL
[3]
  MIC: 62.5 µg/mL (≈ 305 µM)
[4]
  MIC: 7.81 µg/mL (≈ 38.1 µM)
[7]
  MIC: > 500 µM
[8]
  MIC: > 500 µM
[9]
  MIC: > 500 µM
[10]
  MIC: > 500 µM
[11]
  MIC: > 500 µM
[12]
  MIC: > 500 µM
[13]
  MIC: > 500 µM
[23]
  selectivity towards bacterial MetAP over human homologue: 100 fold
[14]
  MIC: > 500 µM
[15]
  MIC: 500 µM (≈ 103 µg/mL)
[16]
  MIC: 500 µM (≈ 103 µg/mL)
[17]
  MIC: > 500 µM
[18]
  MIC: 500 µM (≈ 103 µg/mL)
[19]
  MIC: > 500 µM
[20]
  MIC: > 500 µM
[21]
  MIC: 500 µM (≈ 103 µg/mL)
